Measurements published in the supplement of paper PMC11208160.

Assay: recombinant UMI read abundance after kanamycin selection (control-corrected) (log10(CPM+1)); higher = more efficient recombination; extreme values may be limits of the assay; sequences stand for … in AGTGCAGAGAAAATCGGCCAGTTTTCTCTGCCTGCAGTCCGCATGCCGTGGGACCCCTTGGGTTCTAACCTGTTGCCTAGATTTATGCAGCGGACTGCCTTTCTCCCAAAGTGATAAACCGG…AGGTTGGTTTCACT; site = the 11-nt donor
How it was run: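 Counts of recombinant UMIs were reported as log10(CPM+1). Before that, they were converted to CPM, averaged over replicates and scaled using control-derived factors. They came from PCR across the donor–target junction after Escherichia coli carrying the pair library and target plasmid was plated on IPTG (0.07 mM) plus kanamycin, or unselected, in two replicates each.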
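Also: IS621 bridge recombinase in Escherichia coli cells against a fixed T5 target plasmid.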

Sequence	recombinant UMI read abundance (log10)
GGCCACCCATGGACCGGTTTTCCCGGTAATCCGTATTTGTT (site TGCCACCCTAA)	0.0158
CTGCGTGCATGGACCGGTTTTCCCGGTAATCCGTATTTGTA (site CTGCGTGCTTA)	2.28
ACCGATACATGGACCGGTTTTCCCGGTAATCCGTATTTGAA (site ACCGATACTTT)	1.6
GGCCACCCATGGACCGGTTTTCCCGGTAATCCGTATTTGTT (site GGCCACTCTAA)	0.00279
CCTAAACCATGGACCGGTTTTCCCGGTAATCCGTATTTGAT (site CCTAAAGCTAT)	0
TATGCAACATGGACCGGTTTTCCCGGTAATCCGTATTTGTT (site TATGCAACTAA)	0.0144
AAGGATCCATGGACCGGTTTTCCCGGTAATCCGTATTTGTT (site AAGGATCCTAA)	1.19
CTCGAAACATGGACCGGTTTTCCCGGTAATCCGTATTTGCA (site CTGGAAACTTG)	0
TGCCATTCATGGACCGGTTTTCCCGGTAATCCGTATTTGAT (site TGCCATTCTAT)	0
ACTAGACCATGGACCGGTTTTCCCGGTAATCCGTATTTGAG (site ACTAGATCTCT)	1.02
TGTAGACCATGGACCGGTTTTCCCGGTAATCCGTATTTGAC (site TGTACACCTGT)	0
GAGAAATCATGGACCGGTTTTCCCGGTAATCCGTATTTGCG (site GAGAAATCTCG)	0
CCTCGATCATGGACCGGTTTTCCCGGTAATCCGTATTTGGC (site CCTCGATCTGC)	0
TGCACCGCATGGACCGGTTTTCCCGGTAATCCGTATTTGCG (site TGCACCGCTCG)	0.0216
ACTGAAGCATGGACCGGTTTTCCCGGTAATCCGTATTTGTA (site ACTGAAGCTTA)	2.5
CTGCTATCATGGACCGGTTTTCCCGGTAATCCGTATTTGAC (site CTGCTATCTGT)	1.26
GTATGCACATGGACCGGTTTTCCCGGTAATCCGTATTTGAA (site GTATGCACTTC)	0.0775
CCGTCATCATGGACCGGTTTTCCCGGTAATCCGTATTTGCT (site CCGTCATCTAG)	0
TCAGCTGCATGGACCGGTTTTCCCGGTAATCCGTATTTGTG (site TCAGCTGCTCA)	0.637
TTTAGCCCATGGACCGGTTTTCCCGGTAATCCGTATTTGCT (site TTTAGCCCTAG)	0
ACCCACACATGGACCGGTTTTCCCGGTAATCCGTATTTGTA (site TCCCACACTTA)	0.408
GCGTAGGCATGGACCGGTTTTCCCGGTAATCCGTATTTGCT (site GCGTAGGCTAG)	2.51
ACTCGAACATGGACCGGTTTTCCCGGTAATCCGTATTTGAG (site ACTAGAACTCT)	0.00419
TTTGCGGCATGGACCGGTTTTCCCGGTAATCCGTATTTGCC (site TTTGCGGCTCG)	0.0088
AGGAAGACATGGACCGGTTTTCCCGGTAATCCGTATTTGCA (site TGGAAGACTCG)	0.00521

Sequence	recombinant UMI read abundance (log10)
ACCATATCATGGACCGGTTTTCCCGGTAATCCGTATTTGTC (site TCCATATCTGA)	0
GGTGTTTCATGGACCGGTTTTCCCGGTAATCCGTATTTGGT (site GGTGTTTCTAC)	0.556
GGTACGTCATGGACCGGTTTTCCCGGTAATCCGTATTTGTT (site GGTTCGTCTAA)	0
ATAGCTGCATGGACCGGTTTTCCCGGTAATCCGTATTTGTG (site GTAGCTGCTCA)	0.00767
TGTAGGTCATGGACCGGTTTTCCCGGTAATCCGTATTTGAA (site TGTAGGTCTTT)	0.238
GTCACGACATGGACCGGTTTTCCCGGTAATCCGTATTTGAC (site GTCACGACTGT)	1.96
GTTCGTACATGGACCGGTTTTCCCGGTAATCCGTATTTGGG (site GTTCGTACTCC)	0.0129
AGGAAGACATGGACCGGTTTTCCCGGTAATCCGTATTTGAA (site AGGAAGACTTA)	0.985
AAGCACTCATGGACCGGTTTTCCCGGTAATCCGTATTTGGG (site AAGCACTCTCC)	1.57
AGGAAGACATGGACCGGTTTTCCCGGTAATCCGTATTTGCA (site AGGAAGTCTCG)	0
GATTGTACATGGACCGGTTTTCCCGGTAATCCGTATTTGAC (site GATTGCACTGT)	0
CTGGAAACATGGACCGGTTTTCCCGGTAATCCGTATTTGTA (site CTGGAAACTTA)	2.14
ATAAGGCCATGGACCGGTTTTCCCGGTAATCCGTATTTGAC (site ATAAGGCCTTT)	0.131
CCGTTAGCATGGACCGGTTTTCCCGGTAATCCGTATTTGTG (site CCGTTAGCTCC)	0.0262
CTCACTACATGGACCGGTTTTCCCGGTAATCCGTATTTGAG (site CTCCCTACTCT)	0
TAGGTTGCATGGACCGGTTTTCCCGGTAATCCGTATTTGTA (site TAGGTTGCTTA)	2.39
AGGAAGACATGGACCGGTTTTCCCGGTAATCCGTATTTGCA (site TGGAAGTCTTG)	0
TTGGTTCCATGGACCGGTTTTCCCGGTAATCCGTATTTGTG (site TTGGTTCCTCA)	0.0354
GTGGAGGCATGGACCGGTTTTCCCGGTAATCCGTATTTGAG (site GTGGAGGCTCG)	0.681
GAGCCTTCATGGACCGGTTTTCCCGGTAATCCGTATTTGGT (site GAGCCTTCTAC)	0.859
ACACTTCCATGGACCGGTTTTCCCGGTAATCCGTATTTGAC (site ACACTTCCTGT)	0.338
CGGACATCATGGACCGGTTTTCCCGGTAATCCGTATTTGAT (site CGGACATCTAT)	1.84
TCATACACATGGACCGGTTTTCCCGGTAATCCGTATTTGCA (site TCATACGCTTG)	1.36
CGAGGACCATGGACCGGTTTTCCCGGTAATCCGTATTTGGG (site CGAGCACCTCC)	0
GTTGTTACATGGACCGGTTTTCCCGGTAATCCGTATTTGGT (site GTTGTTGCTAC)	0.0188

Sequence	recombinant UMI read abundance (log10)
CTATTATCATGGACCGGTTTTCCCGGTAATCCGTATTTGAT (site CTATTATCTAT)	1.18
TCGAAAACATGGACCGGTTTTCCCGGTAATCCGTATTTGTT (site TCGAAAACTAA)	0
TGGGTACCATGGACCGGTTTTCCCGGTAATCCGTATTTGTT (site TGGGTACCTAA)	0.0105
TCTACTGCATGGACCGGTTTTCCCGGTAATCCGTATTTGCC (site ACTACTGCTGG)	0
CCCGGTCCATGGACCGGTTTTCCCGGTAATCCGTATTTGCT (site CCCGGTCCTGG)	0
ATAGTACCATGGACCGGTTTTCCCGGTAATCCGTATTTGAC (site ATAGTACCTGT)	0
TACCCTTCATGGACCGGTTTTCCCGGTAATCCGTATTTGGT (site TACCCTTCTAC)	0.56
ACGTAGGCATGGACCGGTTTTCCCGGTAATCCGTATTTGGC (site AGGTAGGCTGC)	1.06
CATTTGGCATGGACCGGTTTTCCCGGTAATCCGTATTTGCT (site CGTTTGGCTAG)	0
GTTAGAACATGGACCGGTTTTCCCGGTAATCCGTATTTGCC (site GTTAGAACTGC)	0
GGTACGTCATGGACCGGTTTTCCCGGTAATCCGTATTTGTT (site GGTATGTCTAA)	0.00457
CGACTCTCATGGACCGGTTTTCCCGGTAATCCGTATTTGAC (site CGACTCTCTGT)	2.88
GGATAGACATGGACCGGTTTTCCCGGTAATCCGTATTTGCT (site GGATAGACTAG)	2.78
GAAGATTCATGGACCGGTTTTCCCGGTAATCCGTATTTGTG (site GAAGATTCTGA)	0
CAACCAGCATGGACCGGTTTTCCCGGTAATCCGTATTTGCT (site CAAACAGCTAG)	0
GTAGTGGCATGGACCGGTTTTCCCGGTAATCCGTATTTGCG (site GTAGTAGCTCG)	2.37
CACATATCATGGACCGGTTTTCCCGGTAATCCGTATTTGTC (site CGCATATCTGA)	0.92
AGGAAGACATGGACCGGTTTTCCCGGTAATCCGTATTTGCA (site AGGAACCCTTG)	0
GGGACGTCATGGACCGGTTTTCCCGGTAATCCGTATTTGTT (site GGAACGTCTAA)	0.547
CGAGGACCATGGACCGGTTTTCCCGGTAATCCGTATTTGGG (site CGAAGACCTCC)	0
CGTTCCCCATGGACCGGTTTTCCCGGTAATCCGTATTTGTA (site GGTTCCCCTTA)	0.00349
GTACGCCCATGGACCGGTTTTCCCGGTAATCCGTATTTGAT (site GTACGCCCTAT)	0.747
AACGAGCCATGGACCGGTTTTCCCGGTAATCCGTATTTGAA (site AACGAGCCTTT)	0.157
GCAGTATCATGGACCGGTTTTCCCGGTAATCCGTATTTGGA (site GCAGTATCTTC)	2.1
AGTTATTCATGGACCGGTTTTCCCGGTAATCCGTATTTGCA (site AGTTATTCTTG)	2.11
